Measured values taken from patent US10945971B2, “Sphingosine kinase type 1 inhibitors and uses thereof” (Enzo Therapeutics, Inc., priority 2008, dated 2021).

Experiments:
[1] = test system: U87 cells; test: Proliferation of U87 glioblastoma cells; type: cell-based, human
Experimental: (§1) Cells were plated at 10,000 cells/well in 48-well plates and allowed to attach for 24 h. Cell proliferation was measured at the indicated times with WST-1 and absorbance was measured in a plate reader at 450 nm with background subtraction at 630 nm. Cell death was detected by trypan blue exclusion assays in which the percent of blue dye incorporating cells were determined using a light microscope and a hemacytometer as described (Yacoub et al. Mol Cancer Ther 7:314-329, 2008). Apoptotic cell death was measured by staining cell nuclei with the Hoechst dye bisbenzimide and apoptotic cells were identified by condensed, fragmented nuclear regions as described previously (Sankala et al. Cancer Res 67:10466-10474, 2007). A minimum of 300 cells was scored.

[2] = test system: U118 cells; test: Proliferation of U118 glioblastoma cells; type: cell-based, human
Experimental: as §1

[3] = test system: LN229 cells; test: Boyden chamber chemotaxis, LN229 cells; type: cell-based, human
Experimental: Boyden chamber invasion assays were carried out essentially as described (Shida et al. Cancer Res 68:6569-6577, 2008).

[4] = test system: Akt; test: Western blotting of Akt phosphorylation, LN229 cells; type: cell-based, human; conditions: LN229, serum, LPA or EGF stimulated, 20 minutes treatment
Experimental: (§2) Cells were scraped in buffer containing 20 mM Tris-HCl, pH 7.5, 50 mM NaCl, 50 mM NaF, 30 mM Na4P2O7, 20 mM 2-glycerophosphate, 1 mM Na3VO4, 5 mM EDTA, 2 mM EGTA, 0.5% SDS and protease inhibitor cocktail (1:200 dilution) and probe-sonicated. Equal amounts of protein determined with bicinchoninic acid (Pierce, Rockford, Ill.), were resolved by SDS-PAGE and transferred to nitrocellulose membranes. Blots were blocked with 5% non-fat dry milk in Tris-buffered saline containing 0.1% […] (TBST) for 1 h at room temperature, and then incubated with primary antibodies (1:3,000 in 1% BSA) overnight, followed by the appropriate HRP-conjugated secondary antibodies (1:40,000 in 1% BSA). Immunocomplexes were visualized by enhanced chemiluminescence (Pierce).

[5] = test system: ERK1/2; test: Western blotting of ERK1/2 phosphorylation, LN229 cells; type: cell-based, human; conditions: LN229, serum, LPA, EGF, short-term
Experimental: as §2

[6] = test system: ERK1/2; test: Western blotting of ERK1/2 activation, U373 cells; type: cell-based, human
Experimental: as §2

[7] = test system: EGFR, Gab1; test: EGF-induced tyrosine phosphorylation of EGFR and Gab1; type: cell-based
Experimental: as §2

[8] = test system: S1P, sphingosine and ceramide levels; test: Sphingolipid metabolite levels by LC-ESI-MS/MS after SK1-I; type: cell-based
From the text: Lipids were extracted and phosphorylated and unphosphorylated sphingoid bases, individual ceramide acyl chain species, as well as SK1-I and its metabolites were quantified by liquid chromatography, electrospray ionization-tandem mass spectrometry (LC-ESI-MS/MS) as described previously (Merrill et al. Methods 36:207-224, 2005).

[9] = test system: LN229 cells; test: Apoptosis of LN229 cells (PARP cleavage, nuclear condensation, TUNEL); type: cell-based, human
Experimental: Cells were grown on 3-aminopropyl-triethoxysilane-treated 15 mm glass cover slips in 24 well plates. Following treatments, cells were washed with PBS, fixed with 3% paraformaldehyde for 10 min at room temperature, and blocked in TBST buffer containing 1% BSA. After washing, cells were incubated in the same buffer containing Alexa-conjugated phalloidin for 30 min, followed by 15 min incubation in 10 μg/ml of Hoechst 33342. For TUNEL assays, fixed cells were permeabilized with 0.5% TX-100 for 30 min, washed and incubated in TdT buffer supplemented with 250 μM CoCl2, 20 units TdT (NEB, Ipswich, Mass.) and 1 nM fluorescein-12-dUTP (Roche) for 1 h at 37° C. […]
as §1, with “A minimum of 300 cells was scored.” left out

[10] = test system: LN229 cells; test: Colony formation (clonogenic) assay, LN229 cells; type: cell-based, human
Experimental: Cells were plated at a density of 1000 cells/well in a 12-well plate in DMEM containing 5% serum. After 8 h, SK1-I was added and 2 h later, the media was changed. After 10 days, cells were fixed in 4% paraformaldehyde and stained with crystal violet (0.05%). Colonies larger then 0.5 mm in diameter were counted.

[11] = test system: LN229 xenograft tumors; test: Subcutaneous LN229 xenograft tumors in nu/nu mice; type: in vivo; conditions: 10 mg/kg i.p. every other day
Experimental: Adult male NCI nu/nu mice were purchased from NCI (Frederick, Md.). All animal studies were conducted in the Animal Research Core Facility at VCU School of Medicine in accordance with the institutional guidelines. LN229 cells (1×10^6) were injected in the flanks (4 sites per mouse). Palpable tumors appeared in about one week. Five days later, when tumors reached 3-4 mm in diameter, mice were randomly separated into 2 groups and injected i.p. with saline or SK1-I (10 mg/kg) every other day. Tumor measurements were made with calipers, and tumor volume was calculated using the formula: (π×[length in millimeters]×[width in millimeters]2)/6. At the end of the experiment, the animals were euthanized and the tumors removed, fixed in formalin and embedded in paraffin, or frozen in liquid nitrogen.
Paraffin sections were dewaxed, rehydrated, incubated with proteinase K before permeabilization, and then stained with hematoxylin-eosin. Frozen sections were dried, fixed in formalin, and stained with antibodies against mouse CD-31 (BD Pharmingen, San Jose, Calif.), or rabbit antibodies against phospho-Akt (Ser473) (Cell Signaling) followed by immunohistochemistry with Alexa-488-conjugated species-specific secondary antibodies. Cryosections were air dried, permeabilized with 0.5% Triton X-100, and stained with a fluorescein TUNEL labeling kit (Roche Applied Sciences, Indianapolis, Ind.) followed by counterstaining with Hoechst. Sections were also stained with goat anti-human VEGF affinity-purified antibody (R&D), visualized with anti-goat horseradish peroxidase-diaminobenzidene staining kit (R&D) and counterstained with hematoxylin.

[12] = biological target: Akt (Homo sapiens, UniProt P31749); conditions: Paugh et al. Blood 2008; cited from earlier work
[13] = U.S. Ser. No. 12/387,228; cited from earlier work
[14] = test system: human leukemic cell lines; conditions: U.S. Ser. No. 12/387,228; cited from earlier work
[15] = test system: AML xenograft tumors; conditions: U.S. Ser. No. 12/387,228; cited from earlier work

Akt (Homo sapiens, UniProt P31749), sequence (P31749 whole entry): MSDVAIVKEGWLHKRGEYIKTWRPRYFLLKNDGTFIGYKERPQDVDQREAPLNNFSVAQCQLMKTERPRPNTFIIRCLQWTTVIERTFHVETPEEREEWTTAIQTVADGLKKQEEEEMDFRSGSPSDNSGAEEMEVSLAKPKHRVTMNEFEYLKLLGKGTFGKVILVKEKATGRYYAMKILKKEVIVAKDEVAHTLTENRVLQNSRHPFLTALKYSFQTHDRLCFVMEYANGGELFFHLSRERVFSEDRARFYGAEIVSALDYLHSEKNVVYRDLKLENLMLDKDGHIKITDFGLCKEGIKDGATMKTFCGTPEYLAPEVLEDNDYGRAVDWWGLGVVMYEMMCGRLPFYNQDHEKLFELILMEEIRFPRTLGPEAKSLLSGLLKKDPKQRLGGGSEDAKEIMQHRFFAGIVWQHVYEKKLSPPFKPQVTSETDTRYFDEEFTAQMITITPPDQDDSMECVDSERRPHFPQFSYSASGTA

## CCCCCc1ccc(/C=C/[C@H](O)[C@@H](CO)NC)cc1 [SK1-I, (2R,3S,4E)-N-methyl-5-(4′-pentylphenyl)-2-aminopent-4-ene-1,3-diol]
[1]
  proliferation: suppress proliferation
[2]
  proliferation: suppress proliferation
[3]
  chemotaxis toward lysophosphatidic acid (LPA): drastically inhibited
  chemotaxis toward serum and EGF: significantly inhibited
[4]
  phosphorylation of Akt at Thr308 and Ser473: markedly suppressed
[5]
  stimulated ERK1/2 phosphorylation at Thr202/Tyr204: did not significantly affect
[6]
  EGF- and serum-induced ERK1/2 activation: did not reduce
[7]
  EGF-induced tyrosine phosphorylation of EGFR or of Gab1: did not affect
[8]; after 24 h of treatment
  ceramide levels, particularly C16-ceramide: increased markedly
[8]; within 20 min after addition
  S1P levels: significant reduction
[8]; within 1 h after addition
  ceramide levels: without major changes
  decrease in S1P levels: 70%
  sphingosine levels: increase
[9]
  apoptosis (PARP cleavage, fragmented and condensed nuclei, TUNEL): induced apoptosis
[10]
  long-term survival in clonogenic assays: markedly suppressed
[11]
  TUNEL positive apoptotic tumor cells: increased numbers
  VEGF expression in tumors: greatly reduced
  blood vessel density (CD31 staining): reductions
  phosphorylated Akt immunostaining in tumors: markedly decreased
  vascularization in tumors (hematoxilin and eosin): decreased vascularization
[11]; after 43 days, vs vehicle
  reduction of tumor weight: ~4 fold
[11]; vs control, single factor ANOVA
  tumor volume: significantly smaller tumors
[12]
  Akt activity in an in vitro kinase assay: did not inhibit Akt activity
[13]
  water solubility: water-soluble
[14]
  apoptosis: markedly induced apoptosis
[15]
  tumor growth: inhibited growth
